How the values were obtained:
Experiment in all cases: Nanosyn kinase profiling
Assay type in all cases: biochemical
Conditions in all cases: read-out: Percentage inhibition; for inhibition at 0.1 µM: 0.1 µM inhibitor; for inhibition at 1 µM: 1 µM inhibitor
[1] = target: T1, LYNA (Homo sapiens, UniProt P07948)
T1 construct: purchased Nanosyn (enzymatic panel); SGC in-house recombinant human kinases (DSF panel); Invitrogen (ALK1-6)
Outline: (§1)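 Percent inhibition of each kinase was measured with the inhibitor at 0.1 µM and at 1 µM, as part of a 200-kinase human selectivity panel.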

[2] = target: T2, SGK1 (Homo sapiens, UniProt O00141)
T2 construct: purchased Nanosyn (enzymatic panel); SGC in-house recombinant human kinases (DSF panel); Invitrogen (ALK1-6)
T2 sequence (O00141 1-431): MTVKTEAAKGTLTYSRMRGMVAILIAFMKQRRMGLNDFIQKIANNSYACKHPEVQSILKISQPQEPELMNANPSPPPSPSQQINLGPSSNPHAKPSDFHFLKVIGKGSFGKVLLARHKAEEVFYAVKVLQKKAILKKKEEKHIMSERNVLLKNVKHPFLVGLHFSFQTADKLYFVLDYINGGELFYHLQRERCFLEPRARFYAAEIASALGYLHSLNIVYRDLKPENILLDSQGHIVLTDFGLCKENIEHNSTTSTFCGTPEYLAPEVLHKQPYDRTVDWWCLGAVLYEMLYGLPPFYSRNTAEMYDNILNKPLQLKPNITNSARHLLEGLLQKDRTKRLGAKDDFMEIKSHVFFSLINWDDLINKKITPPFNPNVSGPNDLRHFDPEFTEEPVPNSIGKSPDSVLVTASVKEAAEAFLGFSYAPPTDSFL
Outline: as §1

[3] = target: T3, LTK (Homo sapiens, UniProt P29376)
T3 construct: purchased Nanosyn (enzymatic panel); SGC in-house recombinant human kinases (DSF panel); Invitrogen (ALK1-6)
Outline: as §1

[4] = target: T4, DYRK2 (Homo sapiens, UniProt Q92630)
T4 construct: purchased Nanosyn (enzymatic panel); SGC in-house recombinant human kinases (DSF panel); Invitrogen (ALK1-6)
T4 sequence (Q92630 1-601): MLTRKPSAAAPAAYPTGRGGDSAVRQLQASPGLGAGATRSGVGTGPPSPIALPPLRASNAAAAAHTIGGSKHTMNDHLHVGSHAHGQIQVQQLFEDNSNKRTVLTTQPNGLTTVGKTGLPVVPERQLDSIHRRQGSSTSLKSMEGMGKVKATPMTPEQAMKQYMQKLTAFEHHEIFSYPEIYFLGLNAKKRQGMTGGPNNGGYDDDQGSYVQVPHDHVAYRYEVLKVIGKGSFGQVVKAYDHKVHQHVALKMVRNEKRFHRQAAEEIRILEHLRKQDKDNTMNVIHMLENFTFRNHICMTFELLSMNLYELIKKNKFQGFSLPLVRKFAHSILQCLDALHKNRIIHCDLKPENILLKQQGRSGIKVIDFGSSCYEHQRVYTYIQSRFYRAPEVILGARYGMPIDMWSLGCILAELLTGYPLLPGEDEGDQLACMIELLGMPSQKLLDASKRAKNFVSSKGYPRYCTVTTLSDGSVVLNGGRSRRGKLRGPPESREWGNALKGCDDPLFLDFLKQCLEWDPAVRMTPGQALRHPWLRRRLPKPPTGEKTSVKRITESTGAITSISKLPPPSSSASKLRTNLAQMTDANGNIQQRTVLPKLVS
Outline: as §1

[5] = target: T5, PIM2 (Homo sapiens, UniProt Q9P1W9)
T5 construct: purchased Nanosyn (enzymatic panel); SGC in-house recombinant human kinases (DSF panel); Invitrogen (ALK1-6)
Outline: as §1

[6] = target: T6, PRKG1 (Homo sapiens, UniProt Q13976)
T6 construct: purchased Nanosyn (enzymatic panel); SGC in-house recombinant human kinases (DSF panel); Invitrogen (ALK1-6)
T6 sequence (Q13976 1-671): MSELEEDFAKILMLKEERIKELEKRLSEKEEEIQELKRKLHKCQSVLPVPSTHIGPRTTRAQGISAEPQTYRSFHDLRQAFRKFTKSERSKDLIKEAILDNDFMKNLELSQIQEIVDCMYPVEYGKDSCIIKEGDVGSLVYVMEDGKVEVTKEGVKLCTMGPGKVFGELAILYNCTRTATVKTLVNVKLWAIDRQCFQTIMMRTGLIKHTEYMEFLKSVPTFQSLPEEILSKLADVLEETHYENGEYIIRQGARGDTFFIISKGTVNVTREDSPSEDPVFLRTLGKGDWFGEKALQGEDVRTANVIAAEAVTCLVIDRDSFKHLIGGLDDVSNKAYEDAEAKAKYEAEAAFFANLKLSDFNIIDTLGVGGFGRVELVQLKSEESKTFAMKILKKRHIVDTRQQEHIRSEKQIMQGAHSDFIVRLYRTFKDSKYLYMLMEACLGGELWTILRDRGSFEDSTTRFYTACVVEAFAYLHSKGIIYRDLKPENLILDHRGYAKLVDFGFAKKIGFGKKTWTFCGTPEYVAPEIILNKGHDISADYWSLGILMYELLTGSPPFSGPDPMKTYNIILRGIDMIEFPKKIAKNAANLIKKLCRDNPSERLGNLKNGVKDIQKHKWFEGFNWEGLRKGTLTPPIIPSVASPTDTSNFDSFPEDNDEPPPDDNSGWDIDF
Outline: as §1

[7] = target: T7, MSSK1 (Homo sapiens, UniProt Q9UPE1)
T7 construct: purchased Nanosyn (enzymatic panel); SGC in-house recombinant human kinases (DSF panel); Invitrogen (ALK1-6)
Outline: as §1

T3 sequence (P29376 17-864): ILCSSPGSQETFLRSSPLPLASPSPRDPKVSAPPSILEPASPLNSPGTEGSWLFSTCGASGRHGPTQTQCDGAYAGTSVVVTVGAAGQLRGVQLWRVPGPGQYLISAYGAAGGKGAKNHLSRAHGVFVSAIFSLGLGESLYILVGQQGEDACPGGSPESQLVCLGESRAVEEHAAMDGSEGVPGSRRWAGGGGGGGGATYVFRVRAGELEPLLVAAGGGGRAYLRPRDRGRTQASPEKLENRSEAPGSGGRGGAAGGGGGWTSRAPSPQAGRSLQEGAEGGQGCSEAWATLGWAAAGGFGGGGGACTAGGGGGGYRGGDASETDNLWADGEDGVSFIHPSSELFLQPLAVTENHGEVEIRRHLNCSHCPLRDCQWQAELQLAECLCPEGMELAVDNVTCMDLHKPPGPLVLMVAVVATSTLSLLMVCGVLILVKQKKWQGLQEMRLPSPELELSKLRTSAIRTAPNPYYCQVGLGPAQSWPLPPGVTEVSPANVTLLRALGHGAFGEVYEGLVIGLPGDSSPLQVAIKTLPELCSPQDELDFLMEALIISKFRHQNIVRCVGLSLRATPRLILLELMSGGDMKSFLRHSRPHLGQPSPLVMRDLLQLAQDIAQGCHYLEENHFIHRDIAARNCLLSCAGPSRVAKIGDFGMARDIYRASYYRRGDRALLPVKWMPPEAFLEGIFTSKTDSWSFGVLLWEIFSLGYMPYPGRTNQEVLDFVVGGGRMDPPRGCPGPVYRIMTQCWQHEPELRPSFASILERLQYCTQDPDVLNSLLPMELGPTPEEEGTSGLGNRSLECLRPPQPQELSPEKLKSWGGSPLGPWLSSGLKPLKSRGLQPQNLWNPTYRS
T5 sequence (Q9P1W9 whole entry): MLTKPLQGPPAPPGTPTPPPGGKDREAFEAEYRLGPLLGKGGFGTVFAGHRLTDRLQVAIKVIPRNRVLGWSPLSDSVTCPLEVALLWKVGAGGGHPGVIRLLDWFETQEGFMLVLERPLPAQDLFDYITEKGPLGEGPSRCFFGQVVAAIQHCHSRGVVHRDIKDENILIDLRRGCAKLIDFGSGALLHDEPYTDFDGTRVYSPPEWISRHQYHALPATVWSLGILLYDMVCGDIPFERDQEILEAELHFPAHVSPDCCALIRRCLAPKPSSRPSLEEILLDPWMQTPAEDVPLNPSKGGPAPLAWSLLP
T7 sequence (Q9UPE1 whole entry): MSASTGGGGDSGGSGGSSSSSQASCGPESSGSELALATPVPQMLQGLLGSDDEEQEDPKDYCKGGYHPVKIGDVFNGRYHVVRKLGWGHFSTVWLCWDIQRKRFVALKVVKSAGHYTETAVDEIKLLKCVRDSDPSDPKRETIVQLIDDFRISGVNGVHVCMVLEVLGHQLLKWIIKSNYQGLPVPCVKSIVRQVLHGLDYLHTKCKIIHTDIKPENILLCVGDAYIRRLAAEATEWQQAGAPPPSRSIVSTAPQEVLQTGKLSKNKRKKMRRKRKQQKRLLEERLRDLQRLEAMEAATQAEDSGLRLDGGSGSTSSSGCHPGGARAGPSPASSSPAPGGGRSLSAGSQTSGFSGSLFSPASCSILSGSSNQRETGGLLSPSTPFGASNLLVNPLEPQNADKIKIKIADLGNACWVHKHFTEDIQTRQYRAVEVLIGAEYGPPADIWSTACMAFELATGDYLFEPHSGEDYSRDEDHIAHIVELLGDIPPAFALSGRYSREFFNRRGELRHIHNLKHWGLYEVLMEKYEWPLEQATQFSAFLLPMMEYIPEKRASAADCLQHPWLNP
T1 sequence (P07948 whole entry): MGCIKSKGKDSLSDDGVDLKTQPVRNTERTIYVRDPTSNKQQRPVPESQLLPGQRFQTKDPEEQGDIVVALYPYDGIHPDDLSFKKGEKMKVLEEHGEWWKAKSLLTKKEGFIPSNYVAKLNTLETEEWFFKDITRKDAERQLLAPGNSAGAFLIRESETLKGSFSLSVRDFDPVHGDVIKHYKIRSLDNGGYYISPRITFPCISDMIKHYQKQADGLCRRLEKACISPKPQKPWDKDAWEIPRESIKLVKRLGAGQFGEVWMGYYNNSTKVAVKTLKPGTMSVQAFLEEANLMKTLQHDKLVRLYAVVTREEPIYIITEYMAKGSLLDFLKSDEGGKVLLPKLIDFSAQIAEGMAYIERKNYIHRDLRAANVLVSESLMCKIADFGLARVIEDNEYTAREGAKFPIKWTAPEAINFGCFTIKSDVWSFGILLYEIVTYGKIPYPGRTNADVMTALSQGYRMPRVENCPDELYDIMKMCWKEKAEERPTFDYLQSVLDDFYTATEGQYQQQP

Structure (SMILES)	inhibition at 0.1 µM [1] [%]	inhibition at 1 µM [1] [%]	inhibition at 0.1 µM [2] [%]	inhibition at 1 µM [2] [%]	inhibition at 0.1 µM [3] [%]	inhibition at 1 µM [3] [%]	inhibition at 0.1 µM [4] [%]	inhibition at 1 µM [4] [%]	inhibition at 0.1 µM [5] [%]	inhibition at 1 µM [5] [%]	inhibition at 0.1 µM [6] [%]	inhibition at 1 µM [6] [%]	inhibition at 0.1 µM [7] [%]	inhibition at 1 µM [7] [%]
COc1cc(-c2cc(-c3cccc(O)c3)cnc2N)cc(OC)c1OC [K02288, 3-[6-amino-5-(3,4,5-trimethoxy-phenyl)-pyridin-3-yl]-phenol]	9.7	49	1.1	-2	3.6	31	-1	-3	0.9	2.3	0.3	3.3	1.8	0
c1ccc2c(-c3cnn4cc(-c5ccc(N6CCNCC6)cc5)cnc34)ccnc2c1 [LDN-193189]	9.1	39	1.1	0.8	3.6	4	2.3	0.2	0	0	1	1.2	-3	1.5
